In PubChem BioAssay AID1963976 (Molecular Pharmacology Branch, DTP, NCI, 2024):

Tested on: 435261-313-R-J1-PDC tumor spheroid viability
Assay: Anticancer human tumor 435261-313-R-J1-PDC patient-derived colon adenocarcinoma cell line growth inhibition [PI3K]
Settings: spheroids with HUVEC and MSC; for IC50: curve of first compound; for viability, T/C: stronger effect = lower value; active = viability on the fitted dose curve at most 10% of control; inactive = the rest
Text: Combinatorial screen of targeted agents with the PI3K inhibitors inavolisib, alpelisib, duvelisib, and copanlisib in multi-cell type tumor spheroids
A high-throughput screen of multi-cell type tumor spheroids was designed to identify active combinations of targeted small molecules and PI3K pathway inhibitors. Complex spheroids include a stromal component modeled by human endothelial cells (HUVEC) and fibroblasts modeled by human mesenchymal stem cells (MSCs). The concentration ranges selected for each drug and investigational agent were based upon clinically achievable concentrations if the clinical Cmax of the agent was known.
Compounds. The drugs and investigational agents: inavolisib (NSC800729), alpelisib (NSC765974), duvelisib (NSC772469), copanlisib (NSC816437), ipatasertib (NSC767898), afuresertib (NSC778305), talazoparib (NSC767125), sapanisertib (NSC764658), selumetinib (NSC741078), tovorafenib (DAY101, NSC766906), vemurafenib (NSC761431), ravoxertinib (NSC781343), sotorasib (NSC818433), MRTX1133 (NSC 836407), abemaciclib (NSC 768073), palbociclib (NSC758247), venetoclax (NSC 766270), SY5609 (NSC837396), enzalutamide (NSC755605), and darolutamide (NSC825331), were obtained from the National Cancer Institute (NCI) Developmental Therapeutics Program Chemical Repository. The FDA-approved anticancer drug set is available from the NCI Developmental Therapeutics Program. […] The stock solutions were prepared in dimethyl sulfoxide (DMSO, Sigma-Aldrich, St. Louis, MO, cat. D2650) at 800-fold the tested concentration and stored at -70 degrees C prior to their use. All drugs and investigational agents were tested over a range starting from a high concentration at or near the clinical Cmax and decreasing in half-log increments. If the clinical Cmax for an agent had not been determined, the highest concentration tested was 10 microM.
Cell Culture. All cells were maintained in an incubator at 37 degrees C and 5% CO2 with 95% humidity. The PDC lines were cultured according to standard operating procedures established by the NCI PDMR (https://pdmr.cancer.gov/sops/default.htm). All PDCs were thawed and cultured in Matrigel-coated flasks prepared with a working solution of 1X Ham's F-12 nutrient mix, without supplementation (Invitrogen, Waltham, MA, cat. 11765054), 100 U/mL penicillin-streptomycin (Invitrogen, cat. 15140122), and 2.5% Matrigel (Corning Inc., Corning, NY, cat. 354248) for the first three passages. The 354836-022-R-J1-PDC, 475296-252-R-J1-PDC, and 997726-040-R-J2-PDC lines were cultured in 6A media, which includes advanced DMEM/F-12 (Thermo Fisher Scientific, cat. 12634028), 10 mM HEPES (Thermo Fisher Scientific, cat. 15630080), 1X GlutaMAX supplement (Thermo Fisher Scientific, cat. 35050061), 0.1 mg/mL primocin (InvivoGen, San Diego, CA, cat. ant-pm-2), 10% defined fetal bovine serum, heat inactivated (HyClone Laboratories Inc., Logan, UT, cat. SH30070.03HI), 50% L-WRN conditioned media (ATCC, cat. CRL-3276), 1.25 mM N-Acetyl-L-cysteine (Sigma-Aldrich, cat. A9165), 10 mM nicotinamide (Sigma-Aldrich, cat. N0636), 1X B-27 supplement (Thermo Fisher Scientific, cat. 17504044), 1X N-2 supplement (Thermo Fisher Scientific, cat. 17502048), and 10 microM Y-27632 dihydrochloride (Tocris Bioscience, Bristol, United Kingdom, cat. 1254). The 624824-186-R-J2-PDC line was cultured in 6C/Colon 1B media, which includes all 6A media components plus 50 ng/mL human EGF recombinant protein (Thermo Fisher Scientific, cat. PHG0311). […]

[1] = second compound 0.00316 µM, first compound 0.0316 µM
[2] = second compound 0.00316 µM, first compound 0.1 µM
[3] = second compound 0.00316 µM, first compound 0.316 µM
[4] = second compound 0.00316 µM, first compound 1 µM
[5] = second compound 0.00316 µM, first compound 3.16 µM
[6] = second compound 0.00316 µM, first compound 10 µM
[7] = second compound 0.01 µM, first compound 0.0316 µM
[8] = second compound 0.01 µM, first compound 0.1 µM
[9] = second compound 0.01 µM, first compound 0.316 µM
[10] = second compound 0.01 µM, first compound 1 µM
[11] = second compound 0.01 µM, first compound 3.16 µM
[12] = second compound 0.01 µM, first compound 10 µM
[13] = second compound 0.0316 µM, first compound 0.0316 µM
[14] = second compound 0.0316 µM, first compound 0.1 µM
[15] = second compound 0.0316 µM, first compound 0.316 µM
[16] = second compound 0.0316 µM, first compound 1 µM
[17] = second compound 0.0316 µM, first compound 3.16 µM
[18] = second compound 0.0316 µM, first compound 10 µM
[19] = second compound 0.1 µM, first compound 0.0316 µM
[20] = second compound 0.1 µM, first compound 0.1 µM
[21] = second compound 0.1 µM, first compound 0.316 µM
[22] = second compound 0.1 µM, first compound 1 µM
[23] = second compound 0.1 µM, first compound 3.16 µM
[24] = second compound 0.1 µM, first compound 10 µM
[25] = second compound 0.316 µM, first compound 0.0316 µM
[26] = second compound 0.316 µM, first compound 0.1 µM
[27] = second compound 0.316 µM, first compound 0.316 µM
[28] = second compound 0.316 µM, first compound 1 µM
[29] = second compound 0.316 µM, first compound 3.16 µM
[30] = second compound 0.316 µM, first compound 10 µM
[31] = second compound 1 µM, first compound 0.0316 µM
[32] = second compound 1 µM, first compound 0.1 µM
[33] = second compound 1 µM, first compound 0.316 µM
[34] = second compound 1 µM, first compound 1 µM
[35] = second compound 1 µM, first compound 3.16 µM
[36] = second compound 1 µM, first compound 10 µM

CC1(C)CCC(CN2CCN(c3ccc(C(=O)NS(=O)(=O)c4ccc(NCC5CCOCC5)c([N+](=O)[O-])c4)c(Oc4cnc5[nH]ccc5c4)c3)CC2)=C(c2ccc(Cl)cc2)C1 + CC(Nc1ccc2c(c1)OCCn1cc(N3C(=O)OCC3C(F)F)nc1-2)C(N)=O
6.17 µM: IC50 (second compound 0.01 µM)
5.55 µM: IC50 (second compound 0.00316 µM)
< 0.0316 µM: IC50 (second compound 0.1 µM) | IC50 (second compound 0.316 µM) | IC50 (second compound 1 µM)
4.21 µM: IC50 (second compound 0.0316 µM)
inactive: viability, T/C [1] 69.6% | viability, T/C [2] 90.5% | viability, T/C [3] 79.2% | viability, T/C [4] 127% | viability, T/C [5] 81.3% | viability, T/C [6] 17.4% | viability, T/C [7] 81.3% | viability, T/C [8] 77.5% | viability, T/C [9] 79% | viability, T/C [10] 90.8% | viability, T/C [11] 95.9% | viability, T/C [12] 24.8% | viability, T/C [13] 58.7% | viability, T/C [14] 59.2% | viability, T/C [15] 55.1% | viability, T/C [16] 65.8% | viability, T/C [17] 74.4% | viability, T/C [18] 11.7% | viability, T/C [19] 34.1% | viability, T/C [20] 39.8% | viability, T/C [21] 51.5% | viability, T/C [22] 35.1% | viability, T/C [23] 33.6% | viability, T/C [24] 10.8% | viability, T/C [25] 23.1% | viability, T/C [26] 23.3% | viability, T/C [27] 22.3% | viability, T/C [28] 24% | viability, T/C [29] 26.2% | viability, T/C [30] 8.22% | viability, T/C [31] 16.4% | viability, T/C [32] 20% | viability, T/C [33] 14.9% | viability, T/C [34] 18.3% | viability, T/C [35] 18.8% | viability, T/C [36] 7.07%

C[C@@H](NC(=O)c1ncnc(N)c1Cl)c1ncc(C(=O)Nc2cc(C(F)(F)F)c(Cl)cn2)s1 + CC(Nc1ccc2c(c1)OCCn1cc(N3C(=O)OCC3C(F)F)nc1-2)C(N)=O
4.55 µM: IC50 (second compound 0.1 µM)
< 0.0316 µM: IC50 (second compound 0.316 µM) | IC50 (second compound 1 µM)
inactive: viability, T/C [1] 168% | viability, T/C [2] 171% | viability, T/C [3] 154% | viability, T/C [4] 148% | viability, T/C [5] 158% | viability, T/C [6] 116% | viability, T/C [7] 136% | viability, T/C [8] 152% | viability, T/C [9] 191% | viability, T/C [10] 135% | viability, T/C [11] 140% | viability, T/C [12] 108% | viability, T/C [13] 99.4% | viability, T/C [14] 126% | viability, T/C [15] 155% | viability, T/C [16] 158% | viability, T/C [17] 112% | viability, T/C [18] 85.4% | viability, T/C [19] 74.7% | viability, T/C [20] 72% | viability, T/C [21] 115% | viability, T/C [22] 77.2% | viability, T/C [23] 58.6% | viability, T/C [24] 32.5% | viability, T/C [25] 51.3% | viability, T/C [26] 47.6% | viability, T/C [27] 36.9% | viability, T/C [28] 39.3% | viability, T/C [29] 35.8% | viability, T/C [30] 9.29% | viability, T/C [31] 29.2% | viability, T/C [32] 33.5% | viability, T/C [33] 21.3% | viability, T/C [34] 27% | viability, T/C [35] 23% | viability, T/C [36] 6.01%
> 10 µM: IC50 (second compound 0.00316 µM) | IC50 (second compound 0.01 µM) | IC50 (second compound 0.0316 µM)
